Data from patent US20250228950A1 (priority 2017, published 2025).

Assays:
[1] = tested on: MDA-MB-231 breast cancer cells; assay: MDA-MB-231 cell growth inhibition / cytotoxicity assay, incl. pH 6.2 vs pH 7.4; settings: for cell growth inhibitory activity / pH-dependent cytotoxicity: MDA-MB-231 cells; for cell growth inhibitory activity: FIG. 3 legend; for pH-dependent cytotoxicity: pH 6.2 over pH 7.4; for IC50: Homo sapiens
[2] = tested on: EMT-6 cells; assay: EMT-6 cytotoxicity at pH 6.2 vs pH 7.4; assay type: cell-based

O=P1(N(CCCl)CCCl)NCCCO1 (centres unmarked) [Cyclophosphamide, reference compound]
cell growth inhibitory activity [1]: remains inactive

O=C(Nc1ccc(N(CCCl)CCCl)cc1)OCCSSCCCc1c(F)c(F)c(O)c(F)c1F [YU252353]
IC50 ([2]; Mus musculus, EMT6, tumor pH 6.2): 28.7 µM
toxicity in this assay ([2]; normal physiological pH 7.4): no detectable toxicity
pH-dependent cytotoxicity [1]: preferential cytotoxicity in acidic conditions

NP(=O)(OCCSSCCCc1c(F)c(F)c(O)c(F)c1F)N(CCCl)CCCl (centres unmarked) [YU252213]
IC50 ([1]; MDA-MB-231, pH 6.2): 41.4 µM
IC50 ([1]; MDA-MB-231, pH 7.4): > 100 µM
cell growth inhibitory activity [1]: shows cell growth inhibitory activity
pH-dependent cytotoxicity [1]: preferential cytotoxicity in acidic conditions
